Experimental data from publication PMC3629081, “Tetrahydropyrazolo[1,5-a]Pyrimidine-3-Carboxamide and N-Benzyl-6′,7′-Dihydrospiro[Piperidine-4,4′-Thieno[3,2-c]Pyran] Analogues with Bactericidal Efficacy against Mycobacterium tuberculosis Targeting MmpL3” (PLoS ONE, 2013).
In brackets after ≈: the same amount, converted by molar mass. Several values for one entry are separate records, joined by “and”; a condition that tells them apart may be missing. Identical values can stand only once. Like-named read-outs stand apart in the source and are kept apart here. Marks after values point to notes of the source that are not given here.

Experiments:
HepG2 cells = format: cell-based, human; details: for HepG2 Tox50: 48 h incubation
Description: Cytotoxicity assay was performed measuring the viability of immortalized human cell line culture (HepG2) after 48 h of incubation with a full curve concentration of the test substances in culture medium. For read out of viability of cells we used Resazurine (BDH®). Resazurin is used as an oxidation-reduction indicator that yields a colorimetric change and a fluorescent signal in response to metabolic activity. As cell grow, metabolic activity results in a chemical reduction of Resazurin indicated by a change from non-fluorescent blue to the reduced fluorescent pink form. The degree of Resazurin fluorescence is therefore, an indicator of the number of viable cells in the culture system. The cytotoxicity results were expressed as Tox50 values (IC50). This was done by calculating the concentration of test compounds that would result in a decrease in Resazurin reduction equivalent to 50% of the concurrent control values. The protocol we followed is described below briefly.
Cell line HepG2 (HB-8065) were cultured with fresh medium (Essential Minimum Eagle Medium, EMEM, supplemented with 5% fetal calf serum and 2 mM L-glutamine) the day before subculturing the plates. On the day of the assay, cells (10,000 cells/well) were seeded in a black 96-well collagen coated microplate with clear bottom, (Becton Dickinson®) except in column 11, that was dispensed only 100 μL of culture medium.
Stock solution from each test substances was prepared in 100% DMSO. Ten serial 1∶2 dilutions were prepared of each test compound and, finally, a 1∶200 dilution was made, in medium, to achieve a final concentration of 0.5% of DMSO. Resazurin tablets (Merck®) were dissolved in phosphate buffer saline at a concentration of 0.0042%.
After 24 h of incubation of the cells (37°C, 5% CO2, 95% relative humidity), a volume of 150 μL of culture medium containing the appropriate test concentrations of the compounds dilutions were added to cells in two replicates. In column 12, only 150 μL of 0.5% DMSO was added (blank control). Then, cells were exposed to test compounds for 48 h. After that, medium was removed and Resazurin solution was added to each well and incubated for further 1.5 h. Fluorescence was measured at an excitation wavelength of 515 nm and an emission wavelength of 590 nm in a Microplate reader 1420 Multilabel HTS counter, Victor 2, (Wallac®) The fluorescence value of each well is corrected by subtracting the background value (average of column 11) from the absolute value. The percentages of inhibition are calculated relatively to the DMSO control wells (average of column 12). For each compound, the average value of the duplicate samples is calculated. Data were processed using an Excel spreadsheet and GraphPad Software analysis. Tox50 values were calculated from the Sigmoidal dose-response (variable slope) curves by nonlinear regression analysis.

[1] = format: in vitro ADME, mouse
Description: (§1) Pooled mouse, rat, dog and human liver microsomes were purchased from Xenotech. Microsomes (final protein concentration 0.5 mg/ml, MgCl2 (final concentration 5 mM) and test compound (final substrate concentration 0.5 µM; final DMSO concentration 0.5 %) in 0.1 M phosphate buffer pH 7.4 were pre-incubated at 37°C prior to the addition of NADPH (final concentration 1 mM) to initiate the reaction. The final incubation volume was 600 µl. Control incubation was included for each compound tested where 0.1 M phosphate buffer pH 7.4 was added instead of NADPH (minus NADPH). One control compound was included with each species. All incubations were performed singularly for each test compound. Each compound was incubated for 30 minutes and samples (90 µl) of incubate were taken at 0, 5, 10, 20 and 30 minutes. The control (minus NADPH) was sampled at 0 and 30 minutes only. The reactions were stopped by the addition of sample to 200 µl of acetonitrile:methanol (3∶1) containing an internal standard. The terminated samples were centrifuged at 3700 rpm for 15 minutes at 4°C to precipitate the protein. Quantitative analysis: following protein precipitation, the samples were analyzed using specific LC-MS/MS conditions. Data analysis: from a plot of ln peak area ratio (compound peak area/internal standard peak area) against time, the gradient of the line was determined. Subsequently, half-life and intrinsic clearance were calculated using the equations below:
(§2) Elimination rate constant (k) = (-gradient) Half life [drawing 1]
(§3) Intrinsic Clearance (CLint) (ml/min/g protein) = [drawing 2] where V = Incubation volume ml/g microsomal protein.

in vivo = assay: in vivo; set-up: species or system mice
Description: Figure 5 Whole blood pharmacokinetic profile and main parameters of compounds 3 and 4. Compounds were given orally at 50 mg/Kg suspension in 1% aqueous methylcellulose. Main pharmacokinetic parameters were established after non-compartimental analysis. AUC: Area Under the Curve; Cmax: Maximum concentration observed in whole blood; %F: percentage bioavailability. TEXT PRINTED IN THE PICTURE: 3: Tmax (h): 3.0 ± 2.8 (Dose (mg/kg): 50); Cmax (μg/ml): 1.8 ± 0.5 (Dose (mg/kg): 50); AUC0-24h (μg*h/ml): 26.2 ± 9.4 (Dose (mg/kg): 50); DNAUC0-24h (μg*h/ml per mg/kg): 0.6 ± 0.2 (Dose (mg/kg): 50); %F: 96.1 ± 32.2 (Dose (mg/kg): 50) | 4: Tmax (h): 0.7 ± 0.1 (Dose (mg/kg): 50); Cmax (μg/ml): 1.3 ± 0.2 (Dose (mg/kg): 50); AUC0-24h (μg*h/ml): 8.7 ± 0.6 (Dose (mg/kg): 50); DNAUC0-24h (μg*h/ml per mg/kg): 0.20 ± 0.01 (Dose (mg/kg): 50); %F: 54.6 ± 5.4 (Dose (mg/kg): 50)
Experimental compounds were administered by oral gavage at 50 mg/kg single dose at a volume of 20 ml/kg to n = 5 mice. All mice received treatment in the fed state. Peripheral total blood was the compartment chosen for the establishment of compound concentrations: 25 μl of blood was taken from the lateral tail vein for each mouse at 15, 30 and 45 minutes, 1, 2, 4, 8 and 24 hours. LC-MS was used as the analytical method of choice for the establishment of compound concentration in blood with a sensitivity of LLQ = 1–5 ng/ml in 25 µl blood. The non-compartmental data analysis (NCA) was performed with WinNonlin Phoenix 6.3 (Pharsight, Certara L.P) and supplementary analysis was performed with GraphPad Prism 5 (GraphPad Software, Inc).

M. tuberculosis H37Rv [2] = assay: In vivo efficacy in acute TB murine model; set-up: species or system Mycobacterium tuberculosis
M. tuberculosis H37Rv [3] = assay: MIC determination against M. tuberculosis H37Rv (resazurin); format: cell-based, Mycobacterium tuberculosis
M. bovis BCG = format: cell-based, Mycobacterium bovis BCG
[4] = format: in vitro ADME, human; details: for Cli human: human microsomes
Description: as §1, §2, §3

[5] = system: panel of Gram-positive and Gram-negative organisms; assay: General antimicrobial activity assay (broth microdilution); format: cell-based; details: read-out: Antibacterial panel IC50
Description: Whole-cell antimicrobial activity was determined by broth microdilution using the Clinical and Laboratory Standards Institute (CLSI) recommended procedure, Document M7-A7, “Methods for Dilution Susceptibility Tests for Bacteria that Grow Aerobically”. Some compounds have been evaluated against a panel of Gram-positive and Gram-negative organisms, including Enterococcus faecium, Enterococcus faecalis, Haemophilus influenzae, Moraxella catarrhalis, Streptococcus pneumoniae, Escherichia coli and Streptococcus pyogenes. The MIC was determined as the lowest concentration of compound producing a >80 % reduction in fluorescence observed.

[6] = system: clinical M. tuberculosis isolates; assay: MIC against clinical strains (BACTEC MGIT 960); format: cell-based, Mycobacterium tuberculosis; details: for MIC90: Mycobacterium tuberculosis, read-out: M. tuberculosis MIC90 (108 strains)
M. tuberculosis = assay: Killing kinetics assay; format: cell-based, Mycobacterium tuberculosis; details: for reduction of cfu counts after one week of treatment: 20x MIC; for in vitro killing behaviour: kill rate over 7 days
[7] = in words
[8] = system: GFP expressing M. tuberculosis H37Rv in Raw264.7 macrophages; assay: microbe, parasite or virus in culture; format: cell-based, Mycobacterium tuberculosis; details: read-out: Intracell. H37Rv MIC80
[9] = Sensitive phenotype, 60 strains
[10] = monoR H (Isoniazid), 20 strains
[11] = monoR Rf (Rifampicin), 3 strains
[12] = monoR Sm (Streptomycin), 11 strains
[13] = Mycobacterium tuberculosis, H37RV

Row | SMILES | HepG2 Tox50 (HepG2 cells) | MIC (M. tuberculosis H37Rv [3]; Mycobacterium tuberculosis) | effect on TMM in [14C]-labelled cultures (M. bovis BCG) | effect on other classes of lipids, in particular phospholipids (M. bovis BCG) | Cli human [4] | IC50 [5] | Range of MIC's [6] | MIC90 [6] | Range of MIC's [6, 9] | Range of MIC's [6, 10] | Range of MIC's [6, 11] | Range of MIC's [6, 12] | Cli mouse ([1]; mouse microsomes) | reduction of cfu counts after one week of treatment (M. tuberculosis) | in vitro killing behaviour (M. tuberculosis) | MIC80 [8, 13] | solubility (physchem) | also measured
1 | Cl.FC(F)(F)Oc1ccc(Oc2ccc(CN3CCC4(CC3)OCCc3sccc34)cc2)cc1 [Compound 4] | 36 µM | – | – | – | – | – | – | – | – | – | – | – | – | – | – | – | – | Cli mouse ([1]; mouse, pH 7.4): 1.2 mL/min/g; AUC (in vivo; mouse, in vivo, po, 50 mg/kg): > 1000 ng·h/mL; Cmax (in vivo; mouse, in vivo, po, 50 mg/kg): 1300 ± 200 ng/mL; DNAUC0-24h (in vivo; mouse, in vivo, po, 50 mg/kg): 0.20 ± 0.01 μg*h/ml per mg/kg; Tmax (in vivo; mouse, in vivo, po, 50 mg/kg): 0.7 ± 0.1 h; bioavailability (in vivo; mouse, in vivo, po, 50 mg/kg): 54.6 ± 5.4%; AUC(0-t) (in vivo; mouse, in vivo, po, 50 mg/kg, AUC0-24h): 8700 ± 600 ng·h/mL; AUC(0-t) (in vivo; mouse, in vivo, po, 50 mg/kg, AUC 24h): 8700 ng·h/mL; reduction in lung bacterial load (M. tuberculosis H37Rv [2]; in vivo): 2.3 log units and 2.7 log units
2 | CCc1ccc([C@H]2C[C@@H](C(F)(F)F)n3ncc(C(=O)NCc4ccc(OC)cc4)c3N2)cc1 [Compound 1, (5R,7S)-5-(4-ethylphenyl)-N-(4-methoxybenzyl)-7-(trifluoromethyl)-4,5,6,7-tetrahydropyrazolo[1,5-a]pyrimidine-3-carboxamide] | >25 ^* µM | 0.3 µM (≈ 0.138 µg/mL) | accumulation of TMM | unaffected | 0.29 mL/min/g | ≥ 32 µM | 0.16 to 2.5 µM and 0.3 to 5 µM | 0.6 µM (≈ 0.275 µg/mL) | 0.16 to 0.6 µM | 0.16 to 0.6 µM | 0.16 to 0.3 µM | 0.16 to 0.6 µM | 0.69 mL/min/g | > 3 log cfu | bactericidal | 0.16 µM (≈ 0.0734 µg/mL) | 5 µM (≈ 2.29 µg/mL) | signs of cytotoxicity at the maximum concentration tested (HepG2 cells; maximum concentration where compound was in solution): did not show initial signs of cytotoxicity; solubility in different media [7]: very low solubility
3 | c1cc2c(s1)CCOC21CCN(Cc2ccc3c(c2)OCCO3)CC1 [Compound 2] | 36 µM | 0.3 µM (≈ 0.107 µg/mL) | accumulation of TMM | unaffected | 25 mL/min/g | ≥ 16 µM | 0.3 to 1.25 µM | 0.6 µM (≈ 0.214 µg/mL) | 0.3 to 1.25 µM | 0.3 to 10 µM | 0.6 to 10 µM | 0.3 to 10 µM | >30 mL/min/g | > 3 log cfu | bactericidal | 0.63 µM (≈ 0.225 µg/mL) | 266 µM (≈ 95.1 µg/mL) | intrinsic clearance values in human microsomes ([4]; in words): poor; intrinsic clearance values in mice microsomes ([1]; in words): poor
4 | CCc1ccc([C@H]2C[C@@H](C(F)(F)F)n3ncc(C(=O)NCc4ccc5c(c4)OCO5)c3N2)cc1 [Compound 3] | > 25 µM | < 0.5 µM | – | – | – | – | – | – | – | – | – | – | 0.8 mL/min/g | – | – | – | – | MIC (M. tuberculosis H37Rv [3]): 0.16 µM (≈ 0.0756 µg/mL); DNAUC0-24h (in vivo; mice, oral 50 mg/kg, whole blood): 0.6 ± 0.2 μg*h/ml per mg/kg; AUC(0-t) (in vivo; mouse, in vivo, po, 50 mg/kg, mice, oral 50 mg/kg, whole blood, read-out: AUC0-24h): 26200 ± 9400 ng·h/mL; AUC(0-t) (in vivo; mouse, in vivo, po, 50 mg/kg, po 50 mg/kg (Figure 4), read-out: AUC 24h): 26500 ng·h/mL; AUC (in vivo; mouse, in vivo, po, 50 mg/kg, minimum requirement fulfilled, read-out: AUC after oral administration 50 mg/kg): > 1000 ng·h/mL; bioavailability (in vivo; mouse, in vivo, mice, oral 50 mg/kg, whole blood, read-out: %F): 96.1 ± 32.2%; Cmax (in vivo; mouse, in vivo, mice, oral 50 mg/kg, whole blood, read-out: Cmax): 1800 ± 500 ng/mL; Tmax (in vivo; mouse, in vivo, mice, oral 50 mg/kg, whole blood, read-out: Tmax): 3 ± 2.8 h; MIC80 [8]: 0.31 µM (≈ 0.146 µg/mL); reduction in lung bacterial load (M. tuberculosis H37Rv [2]; 100 mg/kg orally once a day, day 1 to day 8, B6 mice): 1.5 log units; reduction in lung bacterial load (M. tuberculosis H37Rv [2]; 300 mg/kg orally once a day, day 1 to day 8, B6 mice): 2.2 log units
